Where “and” joins values, the source holds several entries; their conditions need not be identical. Equal entries are not always repeated.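 A five-concentration, 48-hour dose response in 96-well plates underlies each endpoint, interpolated linearly between surrounding concentrations. GI50 marks 50% less growth. TGI marks complete inhibition of growth.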
Assays:
Experiment in all cases: NCI-60 cell line screen, 48 h
[1] = system: HCT-15 colon
[2] = system: HOP-62 NSCLC
[3] = system: HOP-92 NSCLC
[4] = system: MCF7 breast
[5] = system: NCI-H522 lung
[6] = system: PC-3 prostate
[7] = system: SN12C renal
[8] = system: SNB-19 CNS

Compound	GI50 [1] [µM]	TGI [1] [µM]	GI50 [2] [µM]	GI50 [3] [µM]	GI50 [4] [µM]	TGI [4]	GI50 [5] [µM]	TGI [5]	GI50 [6] [µM]	TGI [6] [µM]	GI50 [7] [µM]	TGI [7] [µM]	GI50 [8] [µM]	TGI [8] [µM]	TGI [2] [µM]	TGI [3] [µM]
Cc1cc(C)c2c(n1)sc1c(Nc3ccc(Cl)cc3)ncnc12	< 0.01	> 100	< 0.01	0.0288	< 0.01	> 100 µM	< 0.01	> 100 µM	0.199	> 100	0.0312	> 100	< 0.01	> 100	–	–
C=C1C(=O)OC2CC(C)C(C(CC(C)=O)OC(C)=O)=CCC12 (configuration not stated)	–	7.96	–	–	–	18.2 µM	–	3.27 µM	–	41.8	–	15	–	> 74.9	46.9	21.2
COc1ccc(Sc2[nH]c(C(C)=O)c3ccccc23)cc1	11.5	31	12.7	2.4	12.2	24.6 µM	10.2	36.1 µM	11.1	28.4	11	24.7	11.6	31.2	25.3	18.1
Nc1nn2cc(F)cnc2c1C(=O)Nc1cncc(F)c1N1CCC(C(=O)N2CCN(C3COC3)CC2)CC1	0.165	4.13	0.676	0.653	0.0608	> 100 µM	0.427	3.05 µM	2.06	> 100	0.987	6.17	0.91	7.68	3.98	13
CCOC(=O)C(C#N)C1=CC(=O)C(=O)c2ccc(OC)cc21 (configuration not stated)	–	59.8	–	–	–	31.4 µM	–	18.7 µM	–	77	–	33.8	–	54.8	51.7	–
O=C(Nc1ccc(Br)cc1F)c1cc(F)ccc1O	0.773	7.34	1.56	0.192	1.29	7.14 µM	0.319	4.47 µM	1.15	7.24	0.366	2.92	0.419	> 100	7.82	0.566
O=C(Nc1ccc(Nc2ccncc2)cc1)c1ccc([N+](=O)[O-])cc1	4.95	> 40.6	13.7	4.96	3.5	20.5 µM	12.5	34.6 µM	13.7	> 56.6	2.75	8.79	4.47	20.7	29	21.7
O=C(Nc1ccc2ncccc2c1)Nc1ccc2ncccc2c1	–	> 100	–	–	–	> 100 µM	–	> 100 µM	–	> 100	–	> 100	–	> 100	> 100	> 100
COC(=O)c1ccc2c(c1)nc(NC(=O)c1ccccc1)n2CCCc1ccccc1	1.89	> 100	5.03	6	1.78	> 100 µM	3.58	99.3 µM	4.07	> 100	17.6	> 100	4.25	> 100	> 100	> 100
C[N+](C)(C)CC1CCCc2ccccc2C1=O (configuration not stated)	2.75	8.43	–	–	0.511	5.29 µM and 2.23 µM	0.861	3.23 µM and 2.36 µM	–	30.8	18.9	38.5	–	85.6	34.3	26.7
Cn1c(I)c(C#CCO[Si](C)(C)C(C)(C)C)c(=O)[nH]c1=O	13.5	27.6	> 44.1	2.14	15	33.2 µM	1.8	3.95 µM	17	32.7	17.1	34.2	> 100	> 100	> 59	4.67
Cc1ccc(SC2c3ccc(C)cc3Oc3nc(N)c(C#N)c(N)c32)cc1 (configuration not stated)	1.72	3.23	1.79	1.45	1.94	4.74 µM	1.67	3.11 µM	1.85	3.74	–	–	1.86	3.71	3.4	3.23
CC1=C(C(=O)Nc2ccc(F)c(Cl)c2)C(c2ccccc2O)NC(=S)N1 (configuration not stated)	45.1	> 50	> 50	> 50	–	–	> 50	> 50 µM	40.6	> 50	> 50	> 50	> 50	> 50	> 50	> 50
O=C(/C=C/c1ccccc1)CCC1C(=O)c2ccccc2C1=O	–	> 100	–	–	–	> 100 µM	–	> 100 µM	–	> 100	–	> 100	–	> 100	–	> 100
O=CCC1CCCCC1	–	> 100	–	–	–	–	–	> 100 µM	–	> 100	–	> 100	–	> 100	> 100	> 100
COC(=O)C1c2cc3c(cc2C(OC2OC(C)C(OC)C(C)(OC)C2OC)CC1(C)O)C(=O)c1c(O)cc2c(c1C3=O)OC1OC2(C)C(O)C([N+](C)(C)[O-])C1O (configuration not stated)	–	> 100	–	–	–	> 100 µM	–	0.809 µM	–	> 40.7	–	1.8	–	> 36.1	> 100	–
CC[As](CC)SC[C@H](C)C(=O)N1CCC[C@H]1C(=O)O	0.027	0.194	0.417	0.0177	0.0363	0.159 µM	0.0189	0.0482 µM	0.106	0.589	0.0637	0.218	–	–	1.37	0.0933
COc1cc(-c2oc(=O)ccc2C#Cc2ccccn2)cc(OC)c1OC	1.54	> 100	2.42	2.23	0.798	> 100 µM	–	–	2.21	> 100	5.5	> 100	3.8	> 76.1	> 100	25.4

— PubChem BioAssay (NCI)
